Here are results for 4 cell lines from the supplement of paper PMC10307832.

What all share (experiment): relative viability (nuclei count vs DMSO), 5 days (fraction); higher = more cells survive
Compound in the assay “R406 + Navitoclax”: COc1cc(Nc2ncc(F)c(Nc3ccc4c(n3)NC(=O)C(C)(C)O4)n2)cc(OC)c1OC [R406] + CC1(C)CCC(c2ccc(Cl)cc2)=C(CN2CCN(c3ccc(C(=O)NS(=O)(=O)c4ccc(N[C@H](CCN5CCOCC5)CSc5ccccc5)c(S(=O)(=O)C(F)(F)F)c4)cc3)CC2)C1 [Navitoclax] (partner 0.5 µM)
The method, boiled down:
(§1)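 Relative viability divides the nuclei count in treated wells by that in vehicle wells. Lung cancer cell lines were seeded in 1536-well plates, dosed by pin tool the next day, and fixed and stained after 5 days in one step with final 0.05% Triton X-100, 1% formaldehyde and 1 ug/ml Hoechst. Dosing was a single drug or a fixed anchor-drug dose plus five library-drug doses (not always all listed) in √10 steps, and values are medians of duplicate plates imaged at 4×.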

Compound in the assay “Daporinad + Phenformin”: O=C(/C=C/c1cccnc1)NCCCCC1CCN(C(=O)c2ccccc2)CC1 [Daporinad] + N=C(N)NC(=N)NCCc1ccccc1 [Phenformin] (partner 250 µM)
An outline of the steps: as §1

Compound in the assay “R406 + Bortezomib”: COc1cc(Nc2ncc(F)c(Nc3ccc4c(n3)NC(=O)C(C)(C)O4)n2)cc(OC)c1OC [R406] + CC(C)C[C@H](NC(=O)[C@H](Cc1ccccc1)NC(=O)c1cnccn1)B(O)O [Bortezomib] (partner 0.002 µM)
An outline of the steps: as §1

Compound in the assay “R406 + Pemetrexed”: COc1cc(Nc2ncc(F)c(Nc3ccc4c(n3)NC(=O)C(C)(C)O4)n2)cc(OC)c1OC [R406] + Nc1nc2[nH]cc(CCc3ccc(C(=O)N[C@@H](CCC(=O)O)C(=O)O)cc3)c2c(=O)[nH]1 [Pemetrexed] (partner 0.2 µM)
An outline of the steps:
as §1

For LC-2-ad, the relative viability with R406 + Navitoclax (first compound 0.08 µM) came out at 0.514; in the assay with R406 + Navitoclax (first compound 0.253 µM), 0.479; in the assay with R406 + Navitoclax (first compound 0.8 µM), 0.453; in the assay with R406 + Navitoclax (first compound 2.53 µM), 0.18; with R406 + Navitoclax (first compound 8 µM) it was 0.101; in the assay with Daporinad + Phenformin (first compound 0.0005 µM), 0.568. Moreover, the relative viability came out at 0.707 with Daporinad + Phenformin (first compound 0.001581 µM); 0.605 with Daporinad + Phenformin (first compound 0.005 µM); 0.677 with Daporinad + Phenformin (first compound 0.01581 µM); 0.973 in the assay with R406 + Bortezomib (first compound 0.08 µM); 1.09 with R406 + Bortezomib (first compound 0.253 µM); 0.987 with R406 + Bortezomib (first compound 0.8 µM). Further, the relative viability in the assay with R406 + Bortezomib (first compound 2.53 µM) amounted to 0.111; with R406 + Bortezomib (first compound 8 µM) it was 0.133; with R406 + Pemetrexed (first compound 0.08 µM), 0.281; with R406 + Pemetrexed (first compound 0.253 µM), 0.322; with R406 + Pemetrexed (first compound 0.8 µM), 0.238; in the assay with R406 + Pemetrexed (first compound 2.53 µM), 0.238. The relative viability in the assay with R406 + Pemetrexed (first compound 8 µM) is 0.216.

Consider LCLC-97TM1, for which the relative viability was determined as 0.375 with R406 + Navitoclax (first compound 0.08 µM); 0.511 with R406 + Navitoclax (first compound 0.253 µM); 0.519 with R406 + Navitoclax (first compound 0.8 µM); 0.254 with R406 + Navitoclax (first compound 2.53 µM); 0.462 with R406 + Navitoclax (first compound 8 µM); 0.414 with Daporinad + Phenformin (first compound 0.0005 µM). Besides, the relative viability with Daporinad + Phenformin (first compound 0.001581 µM) came to 0.454; with Daporinad + Phenformin (first compound 0.005 µM), 0.485; with Daporinad + Phenformin (first compound 0.01581 µM), 0.458; with R406 + Bortezomib (first compound 0.08 µM), 0.718; with R406 + Bortezomib (first compound 0.253 µM), 0.659; with R406 + Bortezomib (first compound 0.8 µM), 0.793. Further, the relative viability in the assay with R406 + Bortezomib (first compound 2.53 µM) worked out at 0.489; with R406 + Bortezomib (first compound 8 µM), 0.207; with R406 + Pemetrexed (first compound 0.08 µM), 0.182; with R406 + Pemetrexed (first compound 0.253 µM), 0.2; with R406 + Pemetrexed (first compound 0.8 µM) it was 0.171; with R406 + Pemetrexed (first compound 2.53 µM), 0.183. Further, in the assay with R406 + Pemetrexed (first compound 8 µM), the relative viability came to 0.194.

Turning to LOU-NH91, the relative viability in the assay with R406 + Navitoclax (first compound 0.08 µM) was determined as 0.715; with R406 + Navitoclax (first compound 0.253 µM), 0.701; in the assay with R406 + Navitoclax (first compound 0.8 µM), 0.752; in the assay with R406 + Navitoclax (first compound 2.53 µM), 0.318; in the assay with R406 + Navitoclax (first compound 8 µM) it was 0.313; with Daporinad + Phenformin (first compound 0.0005 µM), 0.645. Besides, the relative viability in the assay with Daporinad + Phenformin (first compound 0.001581 µM) came out at 0.727; with Daporinad + Phenformin (first compound 0.005 µM), 0.798; with Daporinad + Phenformin (first compound 0.01581 µM) it was 1.02; with R406 + Bortezomib (first compound 0.08 µM), 0.427; in the assay with R406 + Bortezomib (first compound 0.253 µM), 0.4; with R406 + Bortezomib (first compound 0.8 µM), 0.469. Moreover, the relative viability with R406 + Bortezomib (first compound 2.53 µM) worked out at 0.496; with R406 + Bortezomib (first compound 8 µM) it was 0.471; with R406 + Pemetrexed (first compound 0.08 µM), 0.362; with R406 + Pemetrexed (first compound 0.253 µM) it was 0.399; with R406 + Pemetrexed (first compound 0.8 µM), 0.37; with R406 + Pemetrexed (first compound 2.53 µM), 0.455. Moreover, the relative viability with R406 + Pemetrexed (first compound 8 µM) stood at 0.38.

As for LU99A, the relative viability in the assay with R406 + Navitoclax (first compound 0.08 µM) amounted to 0.761; with R406 + Navitoclax (first compound 0.253 µM) it was 0.72; with R406 + Navitoclax (first compound 0.8 µM) it was 1.11; with R406 + Navitoclax (first compound 8 µM) it was 0.229; in the assay with Daporinad + Phenformin (first compound 0.0005 µM), 0.833; with Daporinad + Phenformin (first compound 0.001581 µM) it was 0.981. Further, the relative viability is 0.946 with Daporinad + Phenformin (first compound 0.005 µM); 0.93 in the assay with Daporinad + Phenformin (first compound 0.01581 µM); 1.07 in the assay with R406 + Bortezomib (first compound 0.08 µM); 0.968 with R406 + Bortezomib (first compound 0.253 µM); 1.26 in the assay with R406 + Bortezomib (first compound 0.8 µM); 0.512 in the assay with R406 + Bortezomib (first compound 8 µM). In addition, the relative viability was found to be 0.188 with R406 + Pemetrexed (first compound 0.08 µM); 0.183 in the assay with R406 + Pemetrexed (first compound 0.253 µM); 0.224 with R406 + Pemetrexed (first compound 0.8 µM); 0.187 in the assay with R406 + Pemetrexed (first compound 2.53 µM); 0.172 with R406 + Pemetrexed (first compound 8 µM).
